Results from patent publication US20240077423A1, “A TRANSCRIPTIONAL REGULATOR SPECIFICALLY RESPONDING TO D-2-HYDROXYGLUTARATE AND APPLICATION THEREOF” (SHANDONG UNIVERSITY, priority 2021, published 2024).
Entries after “also recorded” stand apart in the source; their conditions may differ.

T1: DhdR (Achromobacter denitrificans NBRC 15125)
T1 chain: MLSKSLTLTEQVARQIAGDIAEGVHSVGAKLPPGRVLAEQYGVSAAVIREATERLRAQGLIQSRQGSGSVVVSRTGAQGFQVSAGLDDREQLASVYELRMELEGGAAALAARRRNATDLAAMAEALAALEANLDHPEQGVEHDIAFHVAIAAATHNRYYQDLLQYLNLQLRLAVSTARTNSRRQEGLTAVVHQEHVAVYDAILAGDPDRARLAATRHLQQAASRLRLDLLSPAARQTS

B1: dhdO (dsDNA)
DNA 1: GAGTCGCGGCGGCGCGCCGGATCCGGGCTGTCATTGTCAAAAGTTATCAGATAACCTGAAAAGTAGGCCTATAATCGGCGC
DNA 2: GCGCCGATTATAGGCCTACTTTTCAGGTTATCTGATAACTTTTGACAATGACAGCCCGGATCCGGCGCGCCGCCGCGACTC
B2: biotinylated dhdO (dsDNA)
DNA 1: GAGTCGCGGCGGCGCGCCGGATCCGGGCTGTCATTGTCAAAAGTTATCAGATAACCTGAAAAGTAGGCCTATAATCGGCGC
DNA 2: GCGCCGATTATAGGCCTACTTTTCAGGTTATCTGATAACTTTTGACAATGACAGCCCGGATCCGGCGCGCCGCCGCGACTC
B3: biotinylated dhdO-1 (dsDNA)
DNA 1: GAGTCGCGGCGGCGCGCCGGATCCGGGCTGTCATTGTCAAAATTTATCAGATAACCTGAAAAGTAGGCCTATAATCGGCGC
DNA 2: GCGCCGATTATAGGCCTACTTTTCAGGTTATCTGATAAATTTTGACAATGACAGCCCGGATCCGGCGCGCCGCCGCGACTC

What was measured:
binding of DhdR to dhdO = experiment: Analysis of DhdR effector by electrophoretic mobility shift assays; set-up: species or system Achromobacter denitrificans NBRC 15125; conditions: 40 mM compound, 70 nM DhdR, dhdO target DNA, EMSA, FIG. 2
Method: DhdR is incubated with different compounds (D-2-HG, L-2-HG, D-malate, D-lactate, glutarate, 2-ketoglutarate, or pyruvate) respectively. Then, the target DNA fragment dhdO is added. The influence on the binding capacity of DhdR and the target DNA fragment dhdO in the presence of the different compounds is analyzed through electrophoresis separation, staining, and imaging.
(§1) The dhdO nucleotide fragment obtained in step (2) above was diluted to 100 nM using binding buffer, and the purified DhdR protein was diluted to 2000 nM. 70 nM purified DhdR protein was first incubated with 40 mM different compounds (D-2-HG, L-2-HG, D-malate, D-lactate, glutarate, 2-ketoglutarate, or pyruvate) at 30° C. for 15 minutes in 18 μL binding buffer. Subsequently, 2 μL of 100 nM dhdO was added and incubated at 30° C. for another 30 min. 10 μL of the sample was analyzed by electrophoresis with 6% native polyacrylamide at 170 V for 45 min on ice. The gel was then stained with SYBR Green I for 30 min avoiding light and photographed by gel imager. […] DhdR can bind to dhdO in the absence of D-2-HG. However, when D-2-HG is present, DhdR will be dissociated from dhdO.

DhdR [1] = biological target: T1, DhdR; experiment: EMSA; 70 nM DhdR, 10 nM dhdO, 30 C; 40 mM D-2-HG inhibits binding; L-2-HG, D-malate, D-lactate, glutarate, 2-ketoglutarate, pyruvate do not; conditions: tags: His6 (pETDuet-1, E. coli BL21(DE3))
Method: as §1

DhdR [2] = biological target: T1, DhdR; experiment: AlphaScreen-type bead luminescence, HBS-P pH 7.4; D-2-HG dissociates complex, LOD 0.8 uM, range about 2-50 uM; conditions: tags: His6 (pETDuet-1, E. coli BL21(DE3)); label: 5'-biotin
Method: (§2) According to the method of detecting the luminescence signal described in (2), a gradient D-2-HG solution dissolved in HBS-P buffer was used and mixed with 5 μL of 1 nM biotinylated dhdO fragment, 0.3 nM DhdR protein, donor beads, and acceptor beads. The luminescence signal was detected to plot the dose-response curves.
The combination of the 1 nM biotinylated dhdO fragment, 0.3 nM DhdR protein, 20 μg/mL donor beads, and 20 μg/mL acceptor beads was named as D-2-HG biosensor BD2HG-0, with a limit of detection of 0.8 μM and a detection range of about 2-50 μM.

DhdR [3] = biological target: T1, DhdR; experiment: AlphaScreen-type bead luminescence, HBS-P pH 7.4; D-2-HG dissociates complex, LOD 0.08 uM, range about 0.3-20 uM; conditions: tags: His6 (pETDuet-1, E. coli BL21(DE3)); label: 5'-biotin
Method: 5 μL biotinylated dhdO-1 fragment, 5 μL DhdR protein and 5 μL solution containing D-2-HG were added into a white 384-well plate, mixed evenly by the oscillation function of a microplate reader, and incubated in dark at room temperature for 30 minutes. Then, 5 μL acceptor beads (20 μg/mL) were added and incubated in dark at room temperature for 30 minutes. Finally, 5 μL donor beads (20 μg/mL) were added and incubated in dark at room temperature for 60 minutes. The luminescence signal was measured by EnSight Multimode Plate Reader. The excitation wavelength was 680 nm and the detection wavelength was 520-620 nm. The background signal without a D-2-HG biosensor was deducted at each emission wavelength.
as §2, with “dhdO-1” for “dhdO”

Molecule | effect on the binding of DhdR to dhdO (binding of DhdR to dhdO) | other results
O=C(O)CCC(=O)C(=O)O [2-ketoglutarate] | could not interfere with the binding of DhdR to dhdO | 
O=C(O)CC[C@@H](O)C(=O)O [D-2-HG, D-2-Hydroxyglutarate] | prevents the binding of DhdR and the target DNA fragment dhdO; also recorded: could inhibit the binding of DhdR to dhdO | 
C[C@@H](O)C(=O)O [D-lactate] | could not interfere with the binding of DhdR to dhdO | 
O=C(O)C[C@@H](O)C(=O)O [D-malate] | could not interfere with the binding of DhdR to dhdO | 
O=C(O)CC[C@H](O)C(=O)O [L-2-HG, L-2-hydroxyglutarate] | could not interfere with the binding of DhdR to dhdO | 
B1 |  | binding result (DhdR [1]): binds
B2 |  | binding result (DhdR [2]): binds
B3 |  | binding result (DhdR [3]): binds
